Test results from patent US12661354B2, “DRG-MDM2-4 for use as a novel mouse double minute 2 (MDM2) inhibitor” (BAHCESEHIR UNIVERSITESI, priority 2020, dated 2026).
Read-outs that look alike come from different tables or passages of the source. Blank lines part the entries; values can stand above or below the compound they belong to.

Key:
[1] = test system: MDA-MB231 cell lines; test: MTT cell viability assay (IC50); assay type: cell-based; conditions: Homo sapiens, MDA-MB-231; MDA-MB231, single dose of treatment, 10^−9 to 10^−4 M, 570 nm absorbance
Description: (§1) HCT 116 colon cancer and MDA-MB231 breast cancer cell lines are used in cell culture experiments.
(§2) Cells were treated with high-glucose DMEM medium (Biosera) supplemented with 10% FBS (Gibco) and 1× penicillin/streptomycin (Multicell). The assay was designed to contain 10,000 cells for each well of 24-well cell culture plates before being treated with inhibitors.
(§3) Compound of formula I was dissolved with DMSO as 20 mM stock. 24 hours later, the solution was diluted in DMEM with 10% FBS and final concentration of vehicle DMSO was 0.5% at maximum. Therefore, the vehicle group included 0.5% DMSO concentration in experiments. Intensive cultivation of cells causes a decrease in proliferation capacity.
The MTT cell viability assay was used to detect values of half-maximal inhibitory concentration (IC50). Different concentrations of compound of formula I ranging between 10^−9 to 10^−4 M were tested on MDA-MB231 cell lines with single dose of treatment. 570 nm absorbance values were recorded and IC50 values were calculated by dose response-inhibition curves and nonlinear regression analysis on Graphpad Prism 8 software. IC50 value of compound of formula I was determined to be 24 μm (FIG. 1).

[2] = test system: HCT 116 colon cancer and MDA-MB231 breast cancer cell lines; test: MTT cell proliferation assay; assay type: cell-based; conditions: for cytotoxicity at 100 µM: read-out: cell viability decreased
Description: as §1, §2, §3
For proliferation inhibition analysis, cells were seeded in 24 well plates at 1×10^4 cells/well cells overnight without drug treatment. During the cell proliferation experiments, we performed five days of treatment in each cell line and repeated the experiments three times to check each experiment. No significant difference in cell viability was observed after the third day. Therefore, cells with different drug concentrations were treated for two days. After 48 hours, MTT was applied to the cells and incubated at 37° C. for 4 hours, formazan was solubilized with DMSO (Sigma-Aldrich, St. Louis, USA) and absorbance was measured at 570 nm.
Molecule concentration was 100 μM, the lower concentrations were not shown. Vehicle represents the groups treated with only %0,5 DMSO and Untreated represents no molecule treated group. Molecule responses were evaluated by cell viability which is obtained by spectrophotometric analysis of cells upon MTT treatment at 12 h, 24 h, 48 h and 72 h. […] Statistical significance in graphs was determined by comparing each treatment group with DMSO control using ANOVA testing and significance is considered as p<0.001 (FIG. 2).

[3] = test system: HCT-116 cells; test: Microscopic evaluation of HCT-116 cells; assay type: cell-based
Source text: Cells were photographed and observed under microscope for three days.
As a result, cell viability decreased by 40% at the end of the first day and reached 60% at the end of the third day. Any cell proliferation change and apoptotic cell morphology were not observed in the untreated and vehicle groups. Moreover, differences in cell morphology were also observed.

[4] = biological target: MDM2 protein (Homo sapiens, UniProt Q00987); conditions: MDM2 protein versus natural p53 peptide; cited from earlier work
Sequence of MDM2 protein (Q00987 whole entry, species assumed): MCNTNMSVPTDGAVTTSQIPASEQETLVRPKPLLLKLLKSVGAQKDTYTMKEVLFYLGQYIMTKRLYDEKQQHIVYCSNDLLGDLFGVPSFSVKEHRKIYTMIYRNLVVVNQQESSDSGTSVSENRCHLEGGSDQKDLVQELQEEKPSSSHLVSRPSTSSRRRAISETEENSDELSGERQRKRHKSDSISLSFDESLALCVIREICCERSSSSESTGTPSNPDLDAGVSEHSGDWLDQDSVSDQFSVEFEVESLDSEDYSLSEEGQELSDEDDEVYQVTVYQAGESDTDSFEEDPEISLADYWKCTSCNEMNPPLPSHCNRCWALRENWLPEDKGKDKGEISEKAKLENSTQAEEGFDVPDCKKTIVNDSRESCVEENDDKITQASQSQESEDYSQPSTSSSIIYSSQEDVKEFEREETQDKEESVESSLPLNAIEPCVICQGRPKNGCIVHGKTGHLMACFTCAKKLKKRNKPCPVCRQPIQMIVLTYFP

IC50 [1]: 24 µM
Compound: Cc1cc(=O)c(C(=O)NCCc2c[nH]c3ccccc23)nn1-c1cccc(C(F)(F)F)c1 [compound of formula I]
cell viability compared to vehicle and untreated groups ([2]; 100 μM, 12 h, 24 h, 48 h and 72 h, ANOVA, p<0.001): statistically significant difference
cytotoxicity at 100 µM ([2]; end of the first day): 40%
cytotoxicity at 100 µM ([2]; end of the third day): 60%
morphology of apoptotic cells, onset ([3]; 100 μM concentration): cells having the morphology of apoptotic cells were observed starting from the 3rd hour
apoptotic activity, onset ([3]; HCT-116, microscopy): clear apoptotic activity from the twelfth hour
proliferation and cell structures under microscope ([3]; HCT-116, observed for three days, versus vehicle and untreated): reduced proliferation and showed apoptotic cell structures

Compound: MI-319
binding affinity relative to natural p53 peptide [4]: 500 fold
